The test system of this assay is P. falciparum 3D7 growth, pLDH absorbance. The assay can be described thus: P. falciparum 3D7 growth inhibition, dose response, strain 3D7 (AID 2305).

Each structure is given as a SMILES string.

Broadly, the IC50 is the concentration at which inhibition is half-maximal. High values mean a need for much substance, low ones inhibition by little substance. As to `COCCNC(=O)c1ccc(OC2CCN(CC(C)=Cc3ccccc3)CC2)c(Cl)c1`, the 50% inhibitory concentration (IC50) is 650 nM.

With `O=C(Nc1cccc(-c2ccc(-c3nc4ccc(F)cc4[nH]3)s2)c1)c1ccncc1`, the IC50 worked out at 700 nM.

For the molecule `O=C(/C=C/c1cccc(OC(F)(F)F)c1)NCCCCCN1CCC(c2c[nH]c3ccccc23)CC1`, the IC50 amounted to 960 nM. Regarding `CN(CCN(C)CC(O)c1ccc(Cl)c(Cl)c1)CC(O)c1ccc(Cl)c(Cl)c1` (centres undefined), the IC50 was 1100 nM.

Take `Cc1cc(N[C@@H](Cc2ccccc2)C(=O)NCCOc2ccccc2)nc(NCCc2ccccn2)n1`: the 50% inhibitory concentration (IC50) is 1520 nM. To `CC[C@H](C)CNC(=O)c1cncc(-c2ccc(CNC3CCCC3)cc2)c1` belongs 1120 nM. To `CCNC(=O)NC1CCN(Cc2c(-c3cccs3)nc3ccccc3c2C(=O)N[C@@H](C)C2CCCCC2)CC1` belongs 90 nM; to `CN(CCc1ccccn1)c1cccc2c1nc(-c1cccnc1)n2CCNCc1ccccc1`, 1060 nM. Next, `Nc1nc(N)c2cc(Cc3ccccc3Cl)cnc2n1`: 110 nM. In the case of `O=[N+]([O-])c1ccc(C(O)CNCCc2ccccc2)cc1OCc1ccccc1` (centres undefined), the IC50 was determined as 910 nM. Molecule `COc1ccc2nc(NC3=NC4(c5ccccc5)N=C(Nc5nc6ccc(OC)cc6[nH]5)NC4(c4ccccc4)N3)[nH]c2c1` (centres undefined) came in with a concentration for half-maximal inhibition (IC50) of 200 nM.

On to `Cc1cccc2[nH]c(-c3ccc(-c4cccc(NC(=O)Nc5ccc(F)c(F)c5F)c4)cc3)nc12`, for which the IC50 stood at 340 nM. Next, `O=C(Nc1cccc(-c2nn3ncccc3c2-c2ccnc(Nc3cccc(C(F)(F)F)c3)n2)c1)c1c(F)cccc1F`: 650 nM. Next, `CCCC(C)Nc1nc(C)cc(NCCC(=O)Nc2ccc(OC)cc2)n1` (centres undefined): 1380 nM; `OCCN1CCN(c2nc(Nc3cccc(F)c3)c3cnn(-c4ccccc4)c3n2)CC1`: 830 nM; `Cc1cc(C=C2SC(=Nc3ccccc3)N(C3CCCC3)C2=O)c(C)n1-c1ccc(Cl)cc1`: 880 nM.

For the molecule `CC(=O)N(Cc1nc(-c2cc(C(F)(F)F)cc(C(F)(F)F)c2)cs1)c1c(C)cccc1C`, the half-maximal inhibitory concentration (IC50) was 110 nM. Next, `CC(C)(C)c1ccc(NC(=O)c2ccc(CN3CCCN(Cc4cccc(Cl)c4)CC3)cc2)cc1`: 970 nM; `Cc1nc2nc(N)nc(N)c2c(C)c1Cc1cccs1`: 780 nM; `CCN(CC)c1nc(Nc2cc(C)ccc2C)nc(Nc2ccccc2O)n1`: 640 nM. To `Cc1cc(N2CCCN(C)CC2)nc(Nc2ccc(Br)cc2)n1` belongs 720 nM; to `CCCC(=O)NC(c1ccc(C(C)C)cc1)c1ccc2cccnc2c1O` (centres undefined), 930 nM. Next, `COc1cccc(C(=O)Nc2nonc2-c2ccc(OC)c(OC)c2)c1`: 800 nM. In turn, `O=C(c1ccccc1F)N(Cc1ccc(Cl)cc1)c1ccccn1` registered an IC50 of 1020 nM. To `CN1CCN(c2ccc(Nc3c4ccccc4nc4ccccc34)cc2)CC1` belongs 640 nM. The molecule `Cc1cc(N(C)C)nc(Nc2ccc(NC(=O)C3CCCCC3)cc2)n1` displayed an IC50 of 1110 nM. In the case of `CN(C)CCOc1cc(NC(=O)Nc2cccc([N+](=O)[O-])c2)ccc1I`, the concentration for half-maximal inhibition (IC50) turned out to be 740 nM.

The molecule `FC(F)(F)c1cccc2c(NN=Cc3ccccc3)ccnc12` gave an IC50 of 620 nM.

Take `CCN(CCNc1nc(NCCc2cnc[nH]2)nc(N(CCC#N)Cc2ccccc2)n1)c1cccc(C)c1`: the 50% inhibitory concentration (IC50) amounted to 710 nM. The molecule `CC1CCN(C(=O)C(Cc2c[nH]c3ccccc23)NS(=O)(=O)c2ccc(Cl)cc2)CC1` (centres undefined) gave an IC50 of 720 nM.

As for `O=C(NCCc1ccccc1)N(Cc1cccc(-c2ccc(CNC3CCCC3)cc2)c1)C1CCN(Cc2ccccc2)CC1`, the IC50 is 400 nM. Next, `c1cc(CN2CCN(CCN3CCOCC3)CC2)cc(-c2csc(-c3nc4ccccc4[nH]3)c2)c1`: 450 nM; `COc1ccc(-n2ccnc2)cc1CNC1CCN(CC2Cn3c(=O)ccc4ccc(F)c2c43)CC1` (centres undefined): 930 nM. To `Cc1nn(-c2ccccc2)nc1C(=O)N(Cc1ccc(-c2ccc(CNCCc3ccc(S(C)(=O)=O)cc3)cn2)cc1)C(C)CN(C)C` (centres undefined) belongs 680 nM; to `Cc1ccccc1C1=CCN(CCCN2c3ccccc3Sc3ccc(Cl)cc32)CC1`, 870 nM; to `FC(F)(F)c1ccc2nccc(NN=Cc3ccccc3)c2c1`, 1170 nM.

Regarding `Cc1cccc(-c2nc3cc(NC(=O)c4ccc([N+](=O)[O-])o4)ccc3o2)c1`, the IC50 was 880 nM. To `CN1CCN(c2ccc(CNc3ccc4ncc(-c5ccc(OC(F)(F)F)cc5)n4n3)cc2)CC1` belongs 830 nM; to `COc1ccccc1-n1c(SCC(=O)c2ccc3c(c2)CC(=O)N3C)nnc1-c1cccs1`, 960 nM; to `O=C(/C=C/C=C/c1ccc(Cl)c(Cl)c1)NCCCCCN1CCCC2CCCCC21` (centres undefined), 950 nM. Next, `CN(C)CCNc1ncnc2c1[nH]c1ccc(Cl)cc12`: 600 nM; `CNCCNCc1ccc(-c2ccc(-c3nc4ccc(C(F)(F)F)cc4[nH]3)s2)cc1`: 600 nM. Next, `CC[C@H]1CN2CC[C@H]1C[C@@H]2[C@@H](OC(=O)c1ccc(Cl)cc1)c1ccnc2ccc(OC)cc12`: 920 nM; `COc1ccc2ncc(C#N)c(CCN3CCC(NCc4ccc5c(n4)NC(=O)CS5)CC3)c2n1`: 840 nM; `CN(C)CCCN1CCN(C(=O)c2cc3cc(-c4ccccc4)ccc3n2S(=O)(=O)c2ccccc2)CC1`: 120 nM.

`Oc1c(C(Nc2nc3ccccc3s2)c2ccccc2)ccc2cccnc12` (centres undefined) showed an IC50 of 650 nM. To `COc1ccc(Cc2c(Cl)nc3nc(N)nc(N)c3c2C)cc1` belongs 1090 nM. Next, `COc1cc(NC(=O)Nc2ccnc3ccccc23)cc(OC)c1`: 470 nM; `Fc1ccc(Nc2ccnc3cc(-c4ccc(CN5CCOCC5)o4)ccc23)c(Cl)c1`: 760 nM; `COc1ccc(CON2C(N)=NC(N)=NC2(C)C)cc1OC`: 10 nM.

With `CCN1CCC(N(Cc2ccc(-c3ccc(C(F)(F)F)cc3)cc2)C(=O)Cn2c(CCc3cccc(F)c3F)cc(=O)c3cn(C)nc32)CC1`, the concentration for half-maximal inhibition (IC50) is 240 nM.

In the case of `CCOc1ccccc1C(=O)Nc1cccc(-c2nc3ncccn3c2C)c1`, the half-inhibitory concentration (IC50) was found to be 850 nM. Next, `CCSc1nnc(C2CCCN(CC(=O)Nc3cc(C(F)(F)F)ccc3Cl)C2)n1CC` (centres undefined): 230 nM; `CC(C)N1CCC(N(Cc2ccc(-c3ccc(C(F)(F)F)cc3)cc2)C(=O)Cn2c(CCc3cccc(F)c3F)nc(=O)c3cccnc32)CC1`: 640 nM. To `O=C(Nc1cccc(OCCN2CCCC2)c1)Nc1ccc(Cl)c(Cl)c1` belongs 770 nM; to `O=C(Cn1c(CCc2cccc(F)c2F)cc(=O)c2ccccc21)N(CCN1CCCC1)Cc1ccc(-c2ccc(C(F)(F)F)cc2)cc1`, 860 nM. Molecule `Cn1cc(CCNc2ccnc(N3CCC(c4ncc[nH]4)CC3)n2)c2ccccc21` registered a half-maximal inhibitory concentration (IC50) of 1200 nM. To `COc1ccc(NC(=O)CCNc2cc(C)nc(Nc3ccccc3)n2)cc1` belongs 1100 nM.

`CC(C)(CN)c1nc(-c2ccc(Cl)c(O)c2)c(-c2ccncc2)[nH]1` displayed an IC50 of 760 nM. Next, `Cn1nccc1C(=O)NCCNCc1ccc(-c2cccc(-c3nc4ccc(F)cc4[nH]3)c2)cc1`: 220 nM; `O=C(NCCCCN1CCC(O)(c2ccc3c(c2)OCO3)CC1)c1ccc(NC(=O)c2ccc(Cl)cc2)cc1`: 1180 nM. Next, `COc1ccc(CN2CCC(CN3CC4(OC3=O)c3ccccc3-c3ccccc34)C2)c(O)c1` (centres undefined): 610 nM. Next, `CCCN(Cc1nnc(-c2ccco2)o1)C(=O)C1CCCN(C(=O)c2ccc(Cl)cc2)C1` (centres undefined): 520 nM. On to `FC(F)(F)c1cc(CNCCCNc2nc3ccncc3[nH]2)ccc1Cl`, for which the 50% inhibitory concentration (IC50) is 1010 nM. `COc1cc(OC)cc(C(=O)Nc2nc(-c3ccccn3)cs2)c1` returned an IC50 of 560 nM. To `CC[C@H]1CN2CCc3cc(OC)c(OC)cc3[C@@H]2C[C@@H]1C[C@H]1NCCc2c1cc(OC)c(O)c2I` belongs 220 nM; to `Fc1ccccc1C=NNc1ccnc2ccccc12`, 890 nM; to `CC(C)(C)c1ccc(CN2CCC(CNC(=O)c3cc(-c4cccc(F)c4)cs3)C2)cc1` (centres undefined), 900 nM.

On to `N#Cc1ccc(CNCCCCCCCNCc2ccc(-c3ccccc3)cc2)cc1`, for which the IC50 worked out at 970 nM.

For `Nc1nc(N)c2c(ccc3c2ccn3CC2CC2)n1`, the concentration for half-maximal inhibition (IC50) turned out to be 210 nM. `COCCNCc1cccc(-c2ccc3nccc(Nc4cc(O)ccc4C)c3c2)c1`: the IC50 was 750 nM. To `CCOc1ccc(CN(CCc2ccc3c(c2)OCO3)Cc2cc(OC)ccc2O)cc1` belongs 750 nM. Turning to `NC1CCCN(Cc2cccc(-c3ccc(-c4nc5ccccc5[nH]4)cc3)c2)C1` (centres undefined), the concentration for half-maximal inhibition (IC50) is 720 nM. To `Cc1ccc2c(NN=Cc3cccc(F)c3)cc(C)nc2c1` belongs 860 nM; to `Fc1ccc2nc(-c3cccc(-c4ccc(CN5CCN(CCN6CCOCC6)CC5)cc4)c3)[nH]c2c1`, 310 nM; to `O=C(NC1CCCCC1)N(Cc1ccc(-c2ccc(CNC3CCCC3)cc2)cc1)C1CCN(Cc2ccccc2)CC1`, 780 nM.

`COc1ccc(CN=C(N)Nc2nc(-c3ccc(OCCCn4ccnc4)cc3)cs2)cc1` gave a concentration for half-maximal inhibition (IC50) of 390 nM. Molecule `CC(Nc1nncc(-c2cccc(F)c2)n1)c1ccc(F)cc1` (centres undefined) showed a half-maximal inhibitory concentration (IC50) of 790 nM. To `Cc1cc(C2CCN(CCCCNC(=O)c3ccc(-c4ccc(C#N)cc4)cc3)CC2)c(C)cc1O` belongs 850 nM; to `CCN(CC)S(=O)(=O)c1ccc(C(C)NC(=O)c2ccccc2COc2ccccc2)cc1` (centres undefined), 330 nM. Next, `CC(C)C1C(O)=C(c2ccc3ccccc3c2)C(=O)N1CC1CCCCC1` (centres undefined): 1130 nM. To `COc1cc(C2CCN(CCCCNC(=O)c3ccc(NC(=O)c4ccc(Cl)c(Cl)c4)cc3)CC2)ccc1OC(C)C` belongs 320 nM. For `Oc1ccc(-c2nc3c4cc(I)ccc4c4ccc(I)cc4c3[nH]2)cc1`, the IC50 is 970 nM. Next, `Cc1ccc(C(=O)Nc2cccc(CN3CCCN(Cc4ccc(O)cc4)CC3)c2)cc1`: 1090 nM; `COc1ccc(CNc2ncc(-c3ccsc3)c(-c3nccs3)n2)cc1OC`: 90 nM; `COc1ccc2c(NN=C(C)c3ccccn3)cc(C)nc2c1`: 720 nM. To `CCN(CC)CCN(Cc1ccc(-c2ccc(C(F)(F)F)cc2)cc1)C(=O)Cn1c(CCc2ccc(F)c(F)c2F)nc(=O)c2ccc(F)cc21` belongs 740 nM; to `COc1ccc2nc3cc(Cl)ccc3c(NCc3ccccc3)c2c1`, 870 nM; to `O=C(NC1CCC(N2CCC3(CC2)C(=O)NCN3c2ccccc2)CC1)c1cc2ccccc2[nH]1` (centres undefined), 680 nM.
